ChEMBL document CHEMBL6083259, “Discovery of quinazoline-benzothiazole derivatives as novel potent protease-activated receptor 4 antagonists with improved pharmacokinetics and low bleeding liability” (Eur J Med Chem, 2024)

How the values were obtained:
[1] = molecular target: T1, Proteinase-activated receptor 4 (Homo sapiens) (UniProt Q96RI0); experiment: Antagonist activity at PAR4 in human platelet rich plasma assessed as inhibition of gamma-PAR4 agonist peptide (AYPGKF-NH2)-induced platelet aggregation at 200 nM preincubated for 5 mins followed by peptide addition and measured after 5 mins by aggregometer relative to control; type: cell-based; details: time 10.0 min
T1 sequence (whole entry): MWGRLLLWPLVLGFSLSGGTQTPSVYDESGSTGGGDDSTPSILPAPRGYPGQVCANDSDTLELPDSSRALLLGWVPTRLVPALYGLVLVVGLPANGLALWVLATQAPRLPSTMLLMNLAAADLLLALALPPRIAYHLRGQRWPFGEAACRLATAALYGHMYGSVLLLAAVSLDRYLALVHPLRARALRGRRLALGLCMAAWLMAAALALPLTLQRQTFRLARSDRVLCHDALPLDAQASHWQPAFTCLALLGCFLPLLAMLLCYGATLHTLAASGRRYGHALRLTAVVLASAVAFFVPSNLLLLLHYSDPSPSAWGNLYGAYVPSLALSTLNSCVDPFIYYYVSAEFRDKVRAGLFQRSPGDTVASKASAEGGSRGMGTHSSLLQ

[2] = Toxicity in male C57BL/6 mouse assessed as prolongation of bleeding time at 10 mg/kg, po measured after 1.5 hrs by tail bleeding assay; type: organism-based; details: in vivo

Compound	inhibition ([1]; filed as antagonist)	other results
COCc1ncc2c(-c3nc4cc(F)c(OCCOC(=O)OC)cc4s3)cc(C)cc2n1		inhibition [1]: 35.3%
COc1cc(Cl)c2nc(-c3cc(C)cc4nc(SC)ncc34)sc2c1	68.2%	
COc1ncc2c(-c3nc4cc(F)c5c(c4s3)C[C@@H](COC(=O)N3CCOCC3)O5)cc(C)cc2n1	47.6%	
COCOc1ncc2c(-c3nc4c(Cl)cc(OC)cc4s3)cc(C)cc2n1	83.8%	
COc1ncc2c(-c3nc4cc(F)c5c(c4s3)C[C@H](COC(=O)Nc3cnc(C)nc3)O5)cc(C)cc2n1		inhibition [1]: 27.5%
COc1cc(F)c2nc(-c3cc(C)cc4nc(OC)ncc34)sc2c1	78.8%	
COc1cc(Cl)c2nc(-c3cc(C)cc4nc(OC)ncc34)sc2c1	85.2%	
COc1ccc2nc(-c3cc(C)cc4cnc(OC)nc34)sc2c1	79.8%	
COc1ncc2c(-c3nc4cc(F)c5c(c4s3)C[C@H](COC(=O)Nc3ccc(OC)c(F)c3)O5)cc(C)cc2n1	59.6%	
COc1ncc2c(-c3nc4cc(F)c5c(c4s3)C[C@@H](COC(=O)Nc3ccc(C(=O)N4CCOCC4)cc3)O5)cc(C)cc2n1	61.2%	
COC(=O)[C@H](c1ccccc1Cl)N1CCc2sccc2C1 [CLOPIDOGREL]		Activity [2]: Toxic
COc1cc(Cl)c2nc(-c3cc(C)cc4cnc(OC)nc34)sc2c1	86.4%	
COc1cc(OC)c2nc(-c3cc(C)cc4nc(OC)ncc34)sc2c1	47.8%	
COc1cc(Cl)c2nc(-c3cc(C)cc4cnc(N(C)C)nc34)sc2c1	47.6%	
COc1ccc(NC(=O)OC[C@H]2Cc3c(c(F)cc4nc(-c5cc(C)cc6nc(OC)ncc56)sc34)O2)cc1	70.5%	
COc1ncc2c(-c3nc4cc(F)c5c(c4s3)C[C@H](COC(=O)Nc3ccc(C(=O)N4CCOCC4)cc3)O5)cc(C)cc2n1		inhibition [1]: 38.1%
COc1ccc2nc(-c3cc(C)cc4nc(SC)ncc34)sc2c1	62.3%	
COc1cc(Cl)c2nc(-c3cc(C)cc4nc(OC(C)C)ncc34)sc2c1		inhibition [1]: 37.7%
COCOc1ncc2c(-c3nc4cc(F)c(OC)cc4s3)cc(C)cc2n1	86.5%	

Compound	inhibition ([1]; filed as antagonist)	other results
COCc1ncc2c(-c3nc4cc(F)c(OCCOC(=O)Nc5cccc(C#N)c5)cc4s3)cc(C)cc2n1	77.1%	
COc1ncc2c(-c3nc4cc(F)c5c(c4s3)C[C@@H](COC(=O)Nc3cc(F)cc(C#N)c3)O5)cc(C)cc2n1	65.8%	
COc1ncc2cc(C)cc(-c3nc4cc(F)c(OC)cc4s3)c2n1	90.2%	
COc1ccc2nc(-c3cc(C)cc4nc(OC(C)C)ncc34)sc2c1	42.9%	
COc1ncc2c(-c3nc4cc(F)c(OCCO)cc4s3)cc(C)cc2n1	84.1%	
COc1ccc(NC(=O)OC[C@H]2Cc3c(c(F)cc4nc(-c5cc(C)cc6nc(OC)ncc56)sc34)O2)cn1		inhibition [1]: 32.9%
COc1cc(Cl)c2nc(-c3cc(C)cc4cnc(N5CCCCC5)nc34)sc2c1		inhibition [1]: 39.5%
COc1ccc(NC(=O)OC[C@H]2Cc3c(c(F)cc4nc(-c5cc(C)cc6nc(OC)ncc56)sc34)O2)c(C)c1	55.3%	
COc1ncc2cc(C)cc(-c3nc4ccccc4s3)c2n1		inhibition [1]: 29.7%
COc1ncc2c(-c3nc4ccccc4s3)cc(C)cc2n1	49.6%	
COc1ncc2c(-c3nc4cc(F)c5c(c4s3)C[C@H](COC(=O)Nc3ccc(C)cc3F)O5)cc(C)cc2n1	82.7%	
COc1cc(Cl)c2nc(-c3cc(C)cc4cnc(SC)nc34)sc2c1	69.2%	
COc1ccc2nc(-c3cc(C)cc4nc(OC)ncc34)sc2c1	77.4%	
CCOc1ncc2c(-c3nc4c(Cl)cc(OC)cc4s3)cc(C)cc2n1	43.4%	
CNc1ncc2c(-c3nc4c(Cl)cc(OC)cc4s3)cc(C)cc2n1	58.7%	
CCOc1ncc2c(-c3nc4c(F)cc(OC)cc4s3)cc(C)cc2n1		inhibition [1]: 39.1%
CCOc1ncc2cc(C)cc(-c3nc4c(Cl)cc(OC)cc4s3)c2n1		inhibition [1]: 36.7%
COc1ncc2cc(C)cc(-c3nc4c(Cl)cc(Cl)cc4s3)c2n1		inhibition [1]: 34.7%
COC(=O)OC[C@H]1Cc2c(c(F)cc3nc(-c4cc(C)cc5nc(OC)ncc45)sc23)O1		inhibition [1]: 34.9%

Compound	inhibition ([1]; filed as antagonist)	other results
COc1cc(Cl)c2nc(-c3cc(C)cc4cnc(C)nc34)sc2c1	85.7%	
COc1ncc2c(-c3nc4cc(F)c5c(c4s3)C[C@H](COC(=O)Nc3ccc(C)cc3)O5)cc(C)cc2n1	79.6%	
COc1cc(C)c2nc(-c3cc(C)cc4nc(OC)ncc34)sc2c1	70.2%	
COc1cc(Cl)c2nc(-c3cc(C)cc4cnc(OC(C)C)nc34)sc2c1		inhibition [1]: 26.3%
CNc1ncc2cc(C)cc(-c3nc4c(Cl)cc(OC)cc4s3)c2n1	58.1%	
COc1cc(Cl)c2nc(-c3cc(C)cc4cncnc34)sc2c1	82.3%	
COc1cc(Cl)c2nc(-c3cc(C)cc4cnc(N5CCOCC5)nc34)sc2c1	52.3%	
COc1ncc2cc(C)cc(-c3nc4c(C)cc5c(c4s3)OCCO5)c2n1	65.3%	
COCOc1ncc2c(-c3nc4c(F)cc(OC)cc4s3)cc(C)cc2n1	77.4%	
CCOc1ncc2c(-c3nc4cc(F)c(OC)cc4s3)cc(C)cc2n1	40.4%	
COc1cc(Cl)c2nc(-c3cc(C)cc4cnc(OC(F)F)nc34)sc2c1	74.5%	
COc1cc(F)c2nc(-c3cc(C)cc4cnc(OC)nc34)sc2c1	89.6%	
COc1ncc2c(-c3nc4cc(F)c5c(c4s3)C[C@H](COC(=O)N3CCOCC3)O5)cc(C)cc2n1	64.7%	
COCc1ncc2c(-c3nc4cc(F)c(OCCOC(=O)Nc5ccc(C(=O)N6CCOCC6)cc5)cc4s3)cc(C)cc2n1	67.1%	
COc1cc2sc(-c3cc(C)cc4nc(SC)ncc34)nc2cc1F	74.8%	
COc1ncc2c(-c3nc4cc(F)c(OC)cc4s3)cc(C)cc2n1	88.3%	
COCc1ncc2c(-c3nc4cc(F)c(OCCOC(=O)N5CCOCC5)cc4s3)cc(C)cc2n1		inhibition [1]: 34.5%
COCOc1ncc2c(-c3nc4ccc(OC)cc4s3)cc(C)cc2n1	73.9%	
